Experiments:
Format in all cases: functional, cell-based
HeLa = test: Cytotoxicity against human HeLa cells
C6 = test: Cytotoxicity against rat C6 cells
H9c2 = test: Cytotoxicity against rat H9c2 cells

Measured: IC50

C=C1C2CCC3=C4CC[C@H]([C@H](C)CC[C@@H](C)C(C)C)[C@@]4(C)CC[C@@H]3[C@@]2(C)CC[C@@H]1O (stereo not given in full) [CONICASTEROL]
> 70 µM: HeLa | C6 | H9c2

C=C1C2CCC3=C4CC[C@H]([C@H](C)CC[C@H](CC)C(C)C)[C@@]4(C)CC[C@@H]3[C@@]2(C)CC[C@@H]1O (stereo not given in full) [THEONELLASTEROL]
> 70 µM: HeLa | C6 | H9c2

C/C(Cl)=C/C=C/C=C/C=C/C=C/C(O)=C1\C(=O)[C@H](CC(N)=O)N([C@@H]2OC[C@@H](O)[C@H](O)[C@H]2O)C1=O [AURANTOSIDE G]
> 70 µM: HeLa | C6 | H9c2

C/C(Cl)=C/C=C/C=C/C=C/C=C/C(=O)O [AURANTOIC ACID]
> 70 µM: HeLa | C6 | H9c2

C=C(CC[C@@H](C)[C@H]1CCC2=C3CCC4C(=C)[C@@H](O)CC[C@]4(C)[C@H]3CC[C@@]21C)C(C)C (stereo not given in full) [DEHYDROCONICASTEROL]
> 70 µM: HeLa | C6 | H9c2

From ChEMBL document CHEMBL1154811, “Dehydroconicasterol and aurantoic acid, a chlorinated polyene derivative, from the Indonesian sponge Theonella swinhoei” (J Nat Prod, 2009)
